Test results: patent US10168342B2, “Lipid probes and uses thereof” (THE SCRIPPS RESEARCH INSTITUTE, priority 2015, dated 2019)
Where two headings read alike, the source gives them in different places.

What was measured:
[1] = molecular target: AEA-DA lipid probe targets in Neuro2a cells (Mus musculus, UniProt O88696)
[2] = molecular target: T1, AEA-DA lipid probe targets in Neuro2a cells (Mus musculus, UniProt P00375)
T1 sequence (P00375 1-187): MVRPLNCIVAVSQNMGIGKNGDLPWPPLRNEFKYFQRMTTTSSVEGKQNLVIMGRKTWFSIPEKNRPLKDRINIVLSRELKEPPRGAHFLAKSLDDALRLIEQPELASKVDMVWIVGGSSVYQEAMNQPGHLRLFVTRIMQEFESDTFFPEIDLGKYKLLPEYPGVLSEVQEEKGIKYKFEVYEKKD

[3] = molecular target: T2, AEA-DA lipid probe targets in Neuro2a cells (Mus musculus, UniProt P35564)
T2 sequence (P35564 21-591): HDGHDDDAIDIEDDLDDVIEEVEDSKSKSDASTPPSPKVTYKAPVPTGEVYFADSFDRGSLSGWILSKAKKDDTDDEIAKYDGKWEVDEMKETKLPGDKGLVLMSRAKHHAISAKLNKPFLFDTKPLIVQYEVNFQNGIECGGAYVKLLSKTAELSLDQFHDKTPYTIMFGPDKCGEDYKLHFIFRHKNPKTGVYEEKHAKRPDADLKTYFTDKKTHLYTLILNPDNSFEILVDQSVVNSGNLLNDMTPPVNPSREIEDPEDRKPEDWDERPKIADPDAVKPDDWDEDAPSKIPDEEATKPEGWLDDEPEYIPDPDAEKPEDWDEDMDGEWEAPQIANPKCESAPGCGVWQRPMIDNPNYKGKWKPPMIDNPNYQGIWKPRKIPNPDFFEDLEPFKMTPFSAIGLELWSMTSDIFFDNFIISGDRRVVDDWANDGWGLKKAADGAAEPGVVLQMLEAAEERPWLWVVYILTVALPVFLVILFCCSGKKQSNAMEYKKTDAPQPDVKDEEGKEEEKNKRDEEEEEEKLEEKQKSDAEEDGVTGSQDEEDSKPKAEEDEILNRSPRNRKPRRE

[4] = molecular target: T3, AEA-DA lipid probe targets in Neuro2a cells (Mus musculus, UniProt P43883)
T3 sequence (P43883 1-425): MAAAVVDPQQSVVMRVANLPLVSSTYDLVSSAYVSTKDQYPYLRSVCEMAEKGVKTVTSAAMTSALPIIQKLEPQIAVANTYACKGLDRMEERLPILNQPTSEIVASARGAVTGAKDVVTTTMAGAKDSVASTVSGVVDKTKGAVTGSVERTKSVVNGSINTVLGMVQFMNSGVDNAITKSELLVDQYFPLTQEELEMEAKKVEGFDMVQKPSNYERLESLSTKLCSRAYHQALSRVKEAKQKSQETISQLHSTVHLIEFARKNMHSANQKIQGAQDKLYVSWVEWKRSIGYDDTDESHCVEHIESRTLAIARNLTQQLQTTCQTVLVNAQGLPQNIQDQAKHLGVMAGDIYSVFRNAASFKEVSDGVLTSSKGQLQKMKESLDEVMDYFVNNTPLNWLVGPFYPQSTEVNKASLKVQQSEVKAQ

[5] = molecular target: T4, AEA-DA lipid probe targets in Neuro2a cells (Mus musculus, UniProt Q62465); conditions: for SILAC ratio, VAT1 (Q99536): Neuro2a cells, AEA-DA probe
T4 sequence (Q62465 1-406): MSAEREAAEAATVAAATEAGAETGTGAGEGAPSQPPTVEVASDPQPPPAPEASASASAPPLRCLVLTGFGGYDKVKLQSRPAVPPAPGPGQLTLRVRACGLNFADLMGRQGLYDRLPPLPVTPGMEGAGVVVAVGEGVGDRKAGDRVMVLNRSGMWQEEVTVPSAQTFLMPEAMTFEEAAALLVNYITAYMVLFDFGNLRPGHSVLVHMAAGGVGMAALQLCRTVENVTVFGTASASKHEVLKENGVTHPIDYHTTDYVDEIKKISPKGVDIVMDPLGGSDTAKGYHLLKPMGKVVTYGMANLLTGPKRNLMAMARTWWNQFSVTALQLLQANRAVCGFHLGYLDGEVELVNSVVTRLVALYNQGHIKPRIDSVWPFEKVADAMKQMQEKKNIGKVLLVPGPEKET

[6] = molecular target: T5, AEA-DA lipid probe targets in Neuro2a cells (Mus musculus, UniProt Q6PD26)
T5 sequence (Q6PD26 1-555): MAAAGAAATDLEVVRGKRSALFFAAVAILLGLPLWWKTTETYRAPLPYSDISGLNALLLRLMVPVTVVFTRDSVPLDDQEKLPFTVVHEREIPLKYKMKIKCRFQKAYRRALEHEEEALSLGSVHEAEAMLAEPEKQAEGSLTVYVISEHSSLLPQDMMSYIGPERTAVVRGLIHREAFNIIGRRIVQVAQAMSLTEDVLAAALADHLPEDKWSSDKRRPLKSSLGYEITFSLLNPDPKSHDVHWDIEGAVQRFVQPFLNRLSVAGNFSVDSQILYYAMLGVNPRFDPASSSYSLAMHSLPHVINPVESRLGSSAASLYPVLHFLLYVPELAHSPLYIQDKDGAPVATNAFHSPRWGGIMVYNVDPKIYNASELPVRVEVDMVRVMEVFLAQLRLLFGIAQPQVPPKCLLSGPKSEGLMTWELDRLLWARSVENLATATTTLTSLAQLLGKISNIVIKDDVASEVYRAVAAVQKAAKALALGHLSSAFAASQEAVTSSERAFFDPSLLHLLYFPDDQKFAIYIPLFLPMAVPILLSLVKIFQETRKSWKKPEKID

[7] = molecular target: T6, AEA-DA lipid probe targets in Neuro2a cells (Mus musculus, UniProt Q8R1L4)
T6 sequence (Q8R1L4 1-214): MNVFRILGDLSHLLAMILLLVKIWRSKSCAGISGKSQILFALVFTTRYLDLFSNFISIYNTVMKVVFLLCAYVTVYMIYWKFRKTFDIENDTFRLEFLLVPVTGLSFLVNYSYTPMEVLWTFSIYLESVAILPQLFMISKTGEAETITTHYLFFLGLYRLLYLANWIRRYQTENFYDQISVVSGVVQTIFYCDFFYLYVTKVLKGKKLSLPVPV

[8] = molecular target: AEA-DA lipid probe targets in Neuro2a cells (Mus musculus, UniProt Q9Z2G6)
Sequence of AEA-DA lipid probe targets in Neuro2a cells (Mus musculus, UniProt Q9Z2G6) (Q9Z2G6 22-790): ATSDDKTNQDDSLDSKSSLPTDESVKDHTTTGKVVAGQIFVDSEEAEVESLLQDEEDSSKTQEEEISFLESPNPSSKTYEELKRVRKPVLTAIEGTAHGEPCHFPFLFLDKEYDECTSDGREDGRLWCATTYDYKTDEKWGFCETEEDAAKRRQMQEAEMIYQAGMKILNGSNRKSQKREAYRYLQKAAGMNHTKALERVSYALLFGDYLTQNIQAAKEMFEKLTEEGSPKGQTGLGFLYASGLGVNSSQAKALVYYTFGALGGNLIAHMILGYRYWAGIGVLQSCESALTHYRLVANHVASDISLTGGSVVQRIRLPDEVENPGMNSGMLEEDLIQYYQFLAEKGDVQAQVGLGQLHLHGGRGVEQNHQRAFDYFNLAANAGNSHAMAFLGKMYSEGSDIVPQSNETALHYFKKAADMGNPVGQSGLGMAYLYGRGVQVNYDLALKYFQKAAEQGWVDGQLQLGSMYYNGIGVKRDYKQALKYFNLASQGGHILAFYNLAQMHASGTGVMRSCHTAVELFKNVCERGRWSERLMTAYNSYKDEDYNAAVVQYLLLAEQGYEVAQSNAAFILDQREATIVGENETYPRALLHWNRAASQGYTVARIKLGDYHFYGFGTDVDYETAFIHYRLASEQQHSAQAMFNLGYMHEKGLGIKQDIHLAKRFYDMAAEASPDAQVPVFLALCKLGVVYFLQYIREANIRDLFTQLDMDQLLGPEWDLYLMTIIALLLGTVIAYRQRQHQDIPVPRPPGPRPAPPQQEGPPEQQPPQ

Sequence of AEA-DA lipid probe targets in Neuro2a cells (Mus musculus, UniProt O88696) (O88696 53-272): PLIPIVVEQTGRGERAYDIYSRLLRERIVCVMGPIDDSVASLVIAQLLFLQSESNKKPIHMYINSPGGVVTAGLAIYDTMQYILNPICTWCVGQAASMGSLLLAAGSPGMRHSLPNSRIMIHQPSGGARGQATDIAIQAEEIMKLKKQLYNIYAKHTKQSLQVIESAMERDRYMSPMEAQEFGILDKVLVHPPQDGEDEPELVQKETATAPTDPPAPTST

In the case of `C=CCN(C)CCCCCCOc1ccc(C(=O)c2ccc(Br)cc2)c(F)c1` [Ro 48-8071, reference compound], the “SILAC ratio Clpp” value ([1]; competitor 25 μM) is reported as 0.9, the “SILAC ratio Dhfr” value ([2]; competitor 25 μM) is reported as 0.8 and the “SILAC ratio, Canx” value ([3]; competitor 25 μM) is reported as 1.2. For the same compound, the “SILAC ratio, Plin2” value ([4]; competitor 25 μM) was 1.8, the “SILAC ratio, VAT1 (Q99536)” value ([5]; competitor 25 μM) was 1.2 and the “SILAC ratio Vat1” value ([5]; competitor 25 μM) was 1.2. The “SILAC ratio Pigs” value ([6]; competitor 25 μM) was 1.1, the “SILAC ratio, Kdelr3” value ([7]; competitor 25 μM) was 0.9 and the “SILAC ratio, Sel1l” value ([8]; competitor 25 μM) was 1.2.
For `CN1CCN(C(=O)c2[nH]c3ccc([N+](=O)[O-])cc3c2-c2ccccc2)CC1` [MJN228, (4-Methylpiperazin-1-yl)(5-nitro-3-phenyl-1H-indol-2-yl)methanone], the “SILAC ratio Clpp” value ([1]; competitor 10 μM) was 1.4, the “SILAC ratio Clpp” value ([1]; competitor 25 μM) was 2.1 and the “SILAC ratio Clpp” value ([1]; competitor 50 μM) was 3.6. The “SILAC ratio Clpp” value ([1]; competitor 100 μM) was 9.0, the “SILAC ratio Dhfr” value ([2]; competitor 10 μM) was 2.0 and the “SILAC ratio Dhfr” value ([2]; competitor 25 μM) was 1.6. For the same compound, the “SILAC ratio Dhfr” value ([2]; competitor 50 μM) was 0.4, the “SILAC ratio Dhfr” value ([2]; competitor 100 μM) was 1.5 and the “SILAC ratio, Canx” value ([3]; competitor 10 μM) was 1.3. The “SILAC ratio, Canx” value ([3]; competitor 25 μM) was 1.7, the “SILAC ratio, Canx” value ([3]; competitor 50 μM) was 1.8 and the “SILAC ratio, Canx” value ([3]; competitor 100 μM) was 2.6. The “SILAC ratio, Plin2” value ([4]; competitor 10 μM) was 1.8, the “SILAC ratio, Plin2” value ([4]; competitor 25 μM) was 3.2 and the “SILAC ratio, Plin2” value ([4]; competitor 50 μM) was 20.0. The “SILAC ratio, Plin2” value ([4]; competitor 100 μM) was 20.0, the “SILAC ratio Vat1” value ([5]; competitor 10 μM) was 1.2 and the “SILAC ratio Vat1” value ([5]; competitor 25 μM) was 1.3. For the same compound, the “SILAC ratio Vat1” value ([5]; competitor 50 μM) was 1.0, the “SILAC ratio Vat1” value ([5]; competitor 100 μM) was 1.2 and the “SILAC ratio Pigs” value ([6]; competitor 10 μM) was 1.3. The “SILAC ratio Pigs” value ([6]; competitor 25 μM) was 1.6, the “SILAC ratio Pigs” value ([6]; competitor 50 μM) was 1.7 and the “SILAC ratio Pigs” value ([6]; competitor 100 μM) was 2.0. For the same compound, the “SILAC ratio, Kdelr3” value ([7]; competitor 10 μM) was 1.2, the “SILAC ratio, Kdelr3” value ([7]; competitor 25 μM) was 1.3 and the “SILAC ratio, Kdelr3” value ([7]; competitor 50 μM) was 1.3. For the same compound, the “SILAC ratio, Kdelr3” value ([7]; competitor 100 μM) was 1.6, the “SILAC ratio, Sel1l” value ([8]; competitor 10 μM) was 1.2 and the “SILAC ratio, Sel1l” value ([8]; competitor 25 μM) was 1.5. The “SILAC ratio, Sel1l” value ([8]; competitor 50 μM) was 1.5 and the “SILAC ratio, Sel1l” value ([8]; competitor 100 μM) was 1.9.
In the case of `CCCCC/C=C\C/C=C\C/C=C\C/C=C\CCCC(=O)NCCO` [AEA, anandamide, reference compound], the “SILAC ratio Clpp” value ([1]; competitor 200 μM) is reported as 1.4, the “SILAC ratio Dhfr” value ([2]; competitor 200 μM) is reported as 1.2 and the “SILAC ratio, Canx” value ([3]; competitor 200 μM) is reported as 1.6. For the same compound, the “SILAC ratio, Plin2” value ([4]; competitor 200 μM) was 1.4, the “SILAC ratio, VAT1 (Q99536)” value ([5]; competitor 200 μM) was 1.6 and the “SILAC ratio Vat1” value ([5]; competitor 200 μM) was 1.6. For the same compound, the “SILAC ratio Pigs” value ([6]; competitor 200 μM) was 1.6, the “SILAC ratio, Kdelr3” value ([7]; competitor 200 μM) was 1.2 and the “SILAC ratio, Sel1l” value ([8]; competitor 200 μM) was 1.6.
`CN1CCN(C(=O)c2c(-c3ccccc3)c3cc([N+](=O)[O-])ccc3n2C)CC1` [KML110, (1-Methyl-5-nitro-3-phenyl-1H-indol-2-yl)(4-methylpiperazin-1-yl)methanone] was tested, and the “SILAC ratio Clpp” value ([1]; competitor 25 μM) was 2.4, the “SILAC ratio Dhfr” value ([2]; competitor 25 μM) was 1.4 and the “SILAC ratio, Canx” value ([3]; competitor 25 μM) was 1.6. For the same compound, the “SILAC ratio, Plin2” value ([4]; competitor 25 μM) was 2.7, the “SILAC ratio Vat1” value ([5]; competitor 25 μM) was 1.4 and the “SILAC ratio Pigs” value ([6]; competitor 25 μM) was 1.2. The “SILAC ratio, Kdelr3” value ([7]; competitor 25 μM) was 1.2 and the “SILAC ratio, Sel1l” value ([8]; competitor 25 μM) was 1.5.
In the case of `O=C(/C=C/c1cccnc1)NCCCCC1CCN(C(=O)c2ccccc2)CC1` [FK-866, reference compound], the “SILAC ratio Clpp” value ([1]; competitor 25 μM) is reported as 1.0, the “SILAC ratio Dhfr” value ([2]; competitor 25 μM) is reported as 1.2 and the “SILAC ratio, Canx” value ([3]; competitor 25 μM) is reported as 1.2. For the same compound, the “SILAC ratio, Plin2” value ([4]; competitor 25 μM) was 1.0, the “SILAC ratio, VAT1 (Q99536)” value ([5]; competitor 25 μM) was 1.9 and the “SILAC ratio Vat1” value ([5]; competitor 25 μM) was 1.9. For the same compound, the “SILAC ratio Pigs” value ([6]; competitor 25 μM) was 1.3, the “SILAC ratio, Kdelr3” value ([7]; competitor 25 μM) was 1.1 and the “SILAC ratio, Sel1l” value ([8]; competitor 25 μM) was 1.4.
